Assay results from PMC7862291, “Full-length in meso structure and mechanism of rat kynurenine 3-monooxygenase inhibition” (Communications Biology, 2021).
pIC50: −log10 of the molar value. “And” between values parts separate entries of the source, which are not always exact repeats. Equal entries are not always repeated.

Key:
Rat KMO = molecular target: T1, Rat KMO (Rattus norvegicus, UniProt O88867); experiment: Rat KMO enzyme (cell-free) assay, NADPH consumption by absorbance; type: biochemical
T1 construct: The GST-tagged full-length KMO (1-478) baculovirus vector contained a thrombin cleavage site; GST (thrombin cleavage site between GST and KMO) (N, cleaved yes); made in house; host or cells: Spodoptera frugiperda (Sf9), baculovirus
T1 sequence (O88867 whole entry): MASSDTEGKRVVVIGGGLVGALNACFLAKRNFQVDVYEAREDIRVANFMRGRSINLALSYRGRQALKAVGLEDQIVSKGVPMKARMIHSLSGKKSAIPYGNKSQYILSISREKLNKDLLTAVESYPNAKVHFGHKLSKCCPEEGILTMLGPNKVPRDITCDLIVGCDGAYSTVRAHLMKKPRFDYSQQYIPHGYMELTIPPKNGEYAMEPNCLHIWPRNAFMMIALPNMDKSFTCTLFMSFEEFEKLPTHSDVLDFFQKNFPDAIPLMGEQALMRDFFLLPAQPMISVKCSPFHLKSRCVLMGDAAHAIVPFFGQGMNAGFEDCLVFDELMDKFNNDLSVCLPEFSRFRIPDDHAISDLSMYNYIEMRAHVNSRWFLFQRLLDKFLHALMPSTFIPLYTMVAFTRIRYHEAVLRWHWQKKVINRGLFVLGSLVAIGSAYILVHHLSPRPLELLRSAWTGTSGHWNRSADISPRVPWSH
Description: (§1) Human KMO was purchased from Origene and used to assay compounds. Full-length Rat-KMO purified for crystallisation was used to assay compounds. Full-length Rat-KMO-expressing membranes were used for mutant assays (Fig. 4b) only. […] Images were taken using Odyssey CLX (LI-COR Biosciences) and quantified using ImageStudio2.0 (LI-COR Biosciences) software.
(§2) Test compounds were dissolved in DMSO and diluted with assay buffer containing 50 mM HEPES, 2 mM MgCl2, 0.5 mM EGTA, 1 mM DTT, 0.05% Tween20 and 0.005% of antiform SI (pH = about 7.9) to prepare a 4% DMSO solution. […] After 5 min of pre-incubation, reactions were started by adding 10 μL of substrate solution containing 2.4 mM kynurenine and 0.6 mM NADPH. Reactions were run for 90 min at 30 °C, then terminated by adding 5 μL of stop buffer (40 mM maleimide, 2 mM WST-9 and 0.1 mM 1-methoky PMS in water). […] Liposomal assays were performed in the same manner except that the composition of the assay buffer was changed (phosphate-buffered saline, 2 mM MgCl2, 1 mM DTT, 0.05% Tween 20).
(§3) Compound assays were analysed and plotted on graphs using Prism (GraphPad Software Inc. San Diego, CA, USA).

hKMO = molecular target: T2, hKMO (Homo sapiens, UniProt O15229); experiment: Human KMO enzyme (cell-free) assay, NADPH consumption by absorbance; type: biochemical
T2 construct: purchased Origene
T2 sequence (O15229 whole entry): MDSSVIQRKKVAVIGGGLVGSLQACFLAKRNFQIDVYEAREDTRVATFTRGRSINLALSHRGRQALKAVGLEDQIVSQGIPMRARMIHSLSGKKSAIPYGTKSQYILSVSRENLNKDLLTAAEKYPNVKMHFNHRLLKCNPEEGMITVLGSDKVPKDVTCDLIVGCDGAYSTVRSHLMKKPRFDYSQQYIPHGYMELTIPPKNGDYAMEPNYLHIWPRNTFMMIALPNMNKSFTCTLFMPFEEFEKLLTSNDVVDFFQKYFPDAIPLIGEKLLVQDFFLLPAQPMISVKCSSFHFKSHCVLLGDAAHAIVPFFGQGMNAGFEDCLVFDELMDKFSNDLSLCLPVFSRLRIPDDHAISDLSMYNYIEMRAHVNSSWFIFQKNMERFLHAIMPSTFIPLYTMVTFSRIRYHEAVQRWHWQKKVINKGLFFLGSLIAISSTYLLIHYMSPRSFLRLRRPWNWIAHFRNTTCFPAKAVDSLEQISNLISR
Description: as §1, §2, §3

[1] = molecular target: T3, HEK293 cells stably expressing rat KMO (Rattus norvegicus, UniProt O88867); experiment: Cell-based rat KMO inhibition assay (LC/MS of 3-hydroxykynurenine)
T3 construct: expressed in transfected cells
T3 sequence (O88867 whole entry): as the sequence (O88867 whole entry) above
Description: (§4) HEK293 cells stably expressing human or rat KMO were maintained in DMEM containing 10% fetal bovine serum, 50 units/mL penicillin, 50 μg/mL streptomycin and 0.2 mg⁄mL zeocine. […] After 2 overnights, the medium was replaced with 10 μL/well of assay buffer (1 × HBSS containing 20 mM HEPES). Ten microliters per well of the diluted test compounds (final, 0–30 μM, 0.3% DMSO) were added to the respective wells. After ~30 min of pre-incubation at 37 °C, reactions were started by adding 20 μL of substrate solution containing 0.2 mM kynurenine. Reactions were run for 2 h at 37 °C, the assay buffer was discarded and the plate was immediately frozen and stored at −30 °C until LC/MS analysis.
(§5) An 80 µL volume of cold acetonitrile with 2% formic acid was added to the cell pellet in a 384-well plate and centrifuged at 3000 rpm for 10 min at 4 °C. A 40 µL volume of the supernatant was transferred to a new 384-well plate and evaporated to dryness under nitrogen gas at 45 °C. The residue was reconstituted in 100 µL of acetonitrile/water (10:90, v/v) with 0.1% formic acid, and 1 µL was injected into the LC-MS/MS system.
(§6) LC/MS/MS was performed on a Shimadzu UFLC Nexera X2 (Shimadzu Corporation, Japan) and an QTRAP® 5500 LC-MS/MS System (SCIEX, Framingham, USA). Chromatographic separation was performed using an Allure PFP Propyl analytical column (5 µm, 2.1 × 100 mm) maintained at 50 °C. The autosampler temperature was set at 15 °C. The mobile phase consisted of formic acid/water/acetonitrile/methanol (0.5/500/250/250, v/v/v/v) and the flow rate was set at 0.3 mL/min. 3-hydroxykynurenine was eluted from the LC column at a retention time of 1.2 min. The MS system was operated using electrospray ionization (ESI) in positive mode. The optimum conditions were curtain gas, 20 psi; ion spray voltage, 5500 V; heated nebulizer temperature (TEM), 700 °C; nebulizing gas (GS1), 70 psi; and heater gas (GS2), 70 psi. […] Analyst® software (SCIEX, Framingham, USA) was used for system control and MultiQuant™ Software (SCIEX, Framingham, USA) was used for data analysis.
as §3

[2] = molecular target: T4, HEK293 cells stably expressing human KMO (Homo sapiens, UniProt O15229); experiment: Cell-based human KMO inhibition assay (LC/MS of 3-hydroxykynurenine)
T4 construct: expressed in transfected cells
T4 sequence (O15229 whole entry): as the sequence (O15229 whole entry) above
Description: as §4, §5, §6, §3

- pIC50 (Rat KMO; cell-free enzyme assay, high kynurenine): 6.24
- inhibition rate, Rat-KMO cell-free assay (Figure 1B source data) (Rat KMO; conc 0.03 μM, duplicates): 4.679% and 12.234%
- inhibition rate, Rat-KMO cell-free assay (Figure 1B source data) (Rat KMO; conc 0.1 μM, duplicates): 19.657%
- inhibition at 0.1 µM (Rat KMO; conc 0.1 μM, duplicates, read-out: inhibition rate, Rat-KMO cell-free assay (Figure 1B source data)): 16%
- inhibition rate, Rat-KMO cell-free assay (Figure 1B source data) (Rat KMO; conc 0.3 μM, duplicates): 35.882%
- inhibition at 0.3 µM (Rat KMO; conc 0.3 μM, duplicates, read-out: inhibition rate, Rat-KMO cell-free assay (Figure 1B source data)): 39.2%
- inhibition rate, Rat-KMO cell-free assay (Figure 1B source data) (Rat KMO; conc 1 μM, duplicates): 64.963%
- inhibition at 1 µM (Rat KMO; conc 1 μM, duplicates, read-out: inhibition rate, Rat-KMO cell-free assay (Figure 1B source data)): 63.5%
- inhibition rate, Rat-KMO cell-free assay (Figure 1B source data) (Rat KMO; conc 3 μM, duplicates): 78.325%
- inhibition at 3 µM (Rat KMO; conc 3 μM, duplicates, read-out: inhibition rate, Rat-KMO cell-free assay (Figure 1B source data)): 81.5%
- inhibition rate, Rat-KMO cell-free assay (Figure 1B source data) (Rat KMO; conc 10 μM, duplicates): 86.225%
- inhibition at 10 µM (Rat KMO; conc 10 μM, duplicates, read-out: inhibition rate, Rat-KMO cell-free assay (Figure 1B source data)): 85.2%
- inhibition rate, Rat-KMO cell-free assay (Figure 1B source data) (Rat KMO; conc 30 μM, duplicates): 94.681%
- inhibition at 30 µM (Rat KMO; conc 30 μM, duplicates, read-out: inhibition rate, Rat-KMO cell-free assay (Figure 1B source data)): 95.7%
- inhibition rate, Rat-KMO cell-free assay (Figure 1B source data) (Rat KMO; conc 100 μM, duplicates): 91.129%
- inhibition at 100 µM (Rat KMO; conc 100 μM, duplicates, read-out: inhibition rate, Rat-KMO cell-free assay (Figure 1B source data)): 88.8%
- pIC50 (hKMO; cell-free enzyme assay, high kynurenine, read-out: Human KMO IC50): 6.80
- inhibition rate, Hs-KMO cell-free assay (Figure 1A source data) (hKMO; conc 0.03 μM, duplicates): 13.527%
- inhibition at 0.03 µM (hKMO; conc 0.03 μM, duplicates, read-out: inhibition rate, Hs-KMO cell-free assay (Figure 1A source data)): 15.1%
- inhibition rate, Hs-KMO cell-free assay (Figure 1A source data) (hKMO; conc 0.1 μM, duplicates): 37.639%
- inhibition at 0.1 µM (hKMO; conc 0.1 μM, duplicates, read-out: inhibition rate, Hs-KMO cell-free assay (Figure 1A source data)): 41.4%
- inhibition rate, Hs-KMO cell-free assay (Figure 1A source data) (hKMO; conc 0.3 μM, duplicates): 65.813%
- inhibition at 0.3 µM (hKMO; conc 0.3 μM, duplicates, read-out: inhibition rate, Hs-KMO cell-free assay (Figure 1A source data)): 66.6%
- inhibition rate, Hs-KMO cell-free assay (Figure 1A source data) (hKMO; conc 1 μM, duplicates): 77.715%
- inhibition at 1 µM (hKMO; conc 1 μM, duplicates, read-out: inhibition rate, Hs-KMO cell-free assay (Figure 1A source data)): 82.9%
- inhibition rate, Hs-KMO cell-free assay (Figure 1A source data) (hKMO; conc 3 μM, duplicates): 95.862%
- inhibition at 3 µM (hKMO; conc 3 μM, duplicates, read-out: inhibition rate, Hs-KMO cell-free assay (Figure 1A source data)): 99.1%
- inhibition rate, Hs-KMO cell-free assay (Figure 1A source data) (hKMO; conc 10 μM, duplicates): 92.894%
- inhibition at 10 µM (hKMO; conc 10 μM, duplicates, read-out: inhibition rate, Hs-KMO cell-free assay (Figure 1A source data)): 97.2%
- inhibition rate, Hs-KMO cell-free assay (Figure 1A source data) (hKMO; conc 30 μM, duplicates): 103.928%
- inhibition at 30 µM (hKMO; conc 30 μM, duplicates, read-out: inhibition rate, Hs-KMO cell-free assay (Figure 1A source data)): 104%
- inhibition rate, Hs-KMO cell-free assay (Figure 1A source data) (hKMO; conc 100 μM, duplicates): 96.422%
- inhibition at 100 µM (hKMO; conc 100 μM, duplicates, read-out: inhibition rate, Hs-KMO cell-free assay (Figure 1A source data)): 100%
- inhibition at 0.03 µM ([1]; HEK293, conc 0.03 μM, duplicates, read-out: inhibition rate, Rat-KMO cellular assay (Figure 1D source data)): 4.96%
- inhibition at 0.1 µM ([1]; HEK293, conc 0.1 μM, duplicates, read-out: inhibition rate, Rat-KMO cellular assay (Figure 1D source data)): 0.969%
- inhibition at 0.3 µM ([1]; HEK293, conc 0.3 μM, duplicates, read-out: inhibition rate, Rat-KMO cellular assay (Figure 1D source data)): 4.27%
- inhibition at 3 µM ([1]; HEK293, conc 3 μM, duplicates, read-out: inhibition rate, Rat-KMO cellular assay (Figure 1D source data)): 20.1%
- inhibition at 10 µM ([1]; HEK293, conc 10 μM, duplicates, read-out: inhibition rate, Rat-KMO cellular assay (Figure 1D source data)): 58.4%
- inhibition at 30 µM ([1]; HEK293, conc 30 μM, duplicates, read-out: inhibition rate, Rat-KMO cellular assay (Figure 1D source data)): 87.7%
- pIC50 ([1]; HEK293 cells expressing rat KMO, LC/MS): 5.14
- inhibition rate, Rat-KMO cellular assay (Figure 1D source data) ([1]; conc 0.03 μM, duplicates): 3.155%
- inhibition rate, Rat-KMO cellular assay (Figure 1D source data) ([1]; conc 0.1 μM, duplicates): 1.853%
- inhibition rate, Rat-KMO cellular assay (Figure 1D source data) ([1]; conc 0.3 μM, duplicates): 6.904%
- inhibition rate, Rat-KMO cellular assay (Figure 1D source data) ([1]; conc 3 μM, duplicates): 21.339%
- inhibition rate, Rat-KMO cellular assay (Figure 1D source data) ([1]; conc 10 μM, duplicates): 59.197%
- inhibition rate, Rat-KMO cellular assay (Figure 1D source data) ([1]; conc 30 μM, duplicates): 87.499%
- inhibition at 0.1 µM ([2]; HEK293, conc 0.1 μM, duplicates, read-out: inhibition rate, Hs-KMO cellular assay (Figure 1C source data)): 17%
- inhibition at 0.3 µM ([2]; HEK293, conc 0.3 μM, duplicates, read-out: inhibition rate, Hs-KMO cellular assay (Figure 1C source data)): 33.6%
- inhibition at 1 µM ([2]; HEK293, conc 1 μM, duplicates, read-out: inhibition rate, Hs-KMO cellular assay (Figure 1C source data)): 60.2%
- inhibition at 3 µM ([2]; HEK293, conc 3 μM, duplicates, read-out: inhibition rate, Hs-KMO cellular assay (Figure 1C source data)): 88.1%
- inhibition at 10 µM ([2]; HEK293, conc 10 μM, duplicates, read-out: inhibition rate, Hs-KMO cellular assay (Figure 1C source data)): 100%
- inhibition at 30 µM ([2]; HEK293, conc 30 μM, duplicates, read-out: inhibition rate, Hs-KMO cellular assay (Figure 1C source data)): 104%
- pIC50 ([2]; HEK293 cells expressing human KMO, LC/MS, read-out: Human cell-based assay IC50): 6.24
- inhibition rate, Hs-KMO cellular assay (Figure 1C source data) ([2]; conc 0.03 μM, duplicates): 1.868% and 10.412%
- inhibition rate, Hs-KMO cellular assay (Figure 1C source data) ([2]; conc 0.1 μM, duplicates): 14.953%
- inhibition rate, Hs-KMO cellular assay (Figure 1C source data) ([2]; conc 0.3 μM, duplicates): 36.860%
- inhibition rate, Hs-KMO cellular assay (Figure 1C source data) ([2]; conc 1 μM, duplicates): 55.900%
- inhibition rate, Hs-KMO cellular assay (Figure 1C source data) ([2]; conc 3 μM, duplicates): 85.656%
- inhibition rate, Hs-KMO cellular assay (Figure 1C source data) ([2]; conc 10 μM, duplicates): 99.963%
- inhibition rate, Hs-KMO cellular assay (Figure 1C source data) ([2]; conc 30 μM, duplicates): 103.556%
SMILES: Cc1cnn(-c2cccc(C(=O)O)c2)c1-c1ccccc1 [Compound 1]
